# Laboratory results from US12595449B2, “Integrated system for 3D tissue culture” (Valo Health, Inc., priority 2020, dated 2026).
# Test system: human engineered cardiac tissues (human iPSC derived cardiomyocytes co-cultured with human cardiac fibroblasts)
# Assay: Drug testing with electrical stimulation of engineered cardiac tissues in the Biowire II 96-well plate (contractile dynamics from polymer wire displacement)
# Format: cell-based
# Conditions: thapsigargin 50×10^−6 m, n=2; for frequency of tissue beating: constant stimulation frequency 1.5 Hz, day 19, video after 15 min; for tissue contraction and relaxation time: electrical pacing 1.5 Hz, day 19 (after 12 days of electrical stimulation), video after 15 min
# Description: To generate cardiac tissues, human iPSC derived cardiomyocytes co-cultured with human cardiac fibroblasts were seeded with hydrogel in the 96-well plate device. Tissue compaction in the first seven days was observed (FIG. 7A, FIG. 7B), with dramatic change in the first two days followed by stabilization after day 3. Electrical field stimulation of cardiac tissues was initiated at day 7 and continued for the additional 12 days. […] Thapsigargin (50×10^-6 m), an inhibitor of sarcoplasmic reticulum function in cardiomyocytes, was added in the presence of electrical pacing (1.5 Hz), resulting in a prolonged tissue contraction and relaxation time (FIG. 7H). […] Predominantly ventricular cardiomyocytes (CMs) were derived from the hiPSC line BJ1D, using monolayer differentiation protocols as previously described. At day 21 of differentiation, cardiomyocytes were disassociated into single cells with previously established methods. Briefly, 1 mg mL^-1 of collagenase type II (Worthington, LS004205) in Hank's Balanced Salt Solution was added to the monolayer cardiomyocyte cultures and incubated overnight at room temperature. The disassociated cells were mixed with cardiac fibroblasts (Lonza, NHCF-V) in a 10:1 cell number ratio. The mixed cells were pelleted and remixed in collagen hydrogel at 5.5×10^7 cells mL^-1. The cell-gel mixture was seeded at […] per microwell. A droplet of media was placed on the wall of the well to keep the moisture until gelation was complete. The plate was incubated at 37° C. and 5% CO2 for 10 min followed by media addition. After seeding (day 0), the tissues were cultured for seven days to allow remodeling around the POMaC wires. Bright field images of the tissues were taken daily to monitor tissue morphology. By day 7, the tissues synchronously contracted and deflected the POMaC wire with each contraction. SpectraMax […] 300 Imaging Cytometer was used to image tissues in the well plate to monitor the daily morphology changes of tissues. Nine pictures were taken in each well of the 96-well plate and automatically stitched together to show the entire view of the well. […] Average tissue width and width of the tissue (Tw), attachment site to the polymer sensor were measured using bright field images at the relaxed state. Passive displacement of polymer sensors was assessed in blue channel. […] The final readouts for the total and passive forces were interpolated according to the Tw and custom tip sizes. […] With built-in force sensor and electrodes, tissues were able to be assessed in situ in terms of their contractile dynamics and drug responses. […] The videos were analyzed using the custom MATLAB software. […]
structure (smiles),measurement,setting,value
C/C=C(/C)C(=O)O[C@H]1C(C)=C2[C@H]([C@@H]1OC(=O)CCCCCCC)[C@@](C)(OC(C)=O)C[C@H](OC(=O)CCC)[C@@]1(O)[C@H]2OC(=O)[C@@]1(C)O [Thapsigargin],frequency of tissue beating,,decreased by half
same,frequency of tissue beating,listed as thapsigargin,reduced by half
same,tissue contraction and relaxation time,,prolonged
same,tissue contraction and relaxation time,listed as thapsigargin,slowed
